TGI and GI50 data for 14 compounds are collected here from PubChem BioAssay (NCI).

Some test systems named below: 786-0 renal; SK-MEL-28 melanoma; OVCAR-4 ovarian; MALME-3M melanoma; NCI-H23 lung; SK-MEL-5 melanoma; M14 melanoma; U251 CNS; SK-MEL-2 melanoma; HS 578T breast; PC-3 prostate; T-47D breast.
Holding throughout (assay): inhibition of tumour cell growth, NCI panel, 48 h

Values joined by “and” are separate entries in the source; they are usually repeats but may differ in a detail not shown here. Identical values can stand only once.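 Grown in 96-well plates, cells were treated for 48 hours with each compound at five concentrations. Insufficient inhibition: endpoint recorded as highest concentration tested. GI50 marks 50% less growth. Definition used: TGI = concentration required for complete inhibition of growth.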

As for `COc1ccc(C2C(Cl)C(=O)N2NC(=O)c2ccccc2O)cc1OC` (centres undefined), the TGI in the assay with 786-0 renal, with SK-MEL-28 melanoma, in the assay on OVCAR-4 ovarian, in the assay on MALME-3M melanoma, with NCI-H23 lung and in the assay with SK-MEL-5 melanoma was above 100 µM throughout. Also, the TGI in the assay with M14 melanoma, in the assay on U251 CNS and in the assay with SK-MEL-2 melanoma was above 100 µM in each case.

For `COc1cc2c(cc1OCCCCN1CCN(CCCCOc3cc4c(cc3OC)C(=O)N3CCC[C@H]3C=N4)CC1)N=C[C@@H]1CCCN1C2=O`, the TGI is 41.1 µM in the assay with 786-0 renal; above 100 µM in the assay with HS 578T breast; 12 µM in the assay on OVCAR-4 ovarian; 0.0914 µM in the assay with NCI-H23 lung; 0.0476 µM in the assay on SK-MEL-5 melanoma; 0.0936 µM with M14 melanoma. Also, the TGI is above 100 µM with U251 CNS, 3.12 µM in the assay with PC-3 prostate, 0.175 µM in the assay with SK-MEL-2 melanoma and 3.53 µM in the assay on T-47D breast.

Regarding `O=C1c2ccccc2C(=O)c2c(O)c(NCCNCCO)cc(O)c21`, the TGI in the assay on 786-0 renal stood at 14.1 µM; with SK-MEL-28 melanoma, 16.6 µM; in the assay on OVCAR-4 ovarian it was 15.7 µM; with MALME-3M melanoma, 26.5 µM; in the assay with NCI-H23 lung, 16.7 µM; in the assay with SK-MEL-5 melanoma it was 13.1 µM. Moreover, the TGI in the assay with M14 melanoma was 16 µM; in the assay with SK-MEL-2 melanoma, 15.8 µM.

In the case of `COC(=O)CNCC1OC2OC(C)(C)OC2C1N=[N+]=[N-]` (centres undefined), the TGI in the assay with 786-0 renal, in the assay on HS 578T breast, with SK-MEL-28 melanoma, with OVCAR-4 ovarian, in the assay with SK-MEL-5 melanoma and in the assay on U251 CNS was above 100 µM in each case. Further, the TGI in the assay with PC-3 prostate, with SK-MEL-2 melanoma and with T-47D breast was above 100 µM each time.

In the case of `Cc1ccc(F)c2c(=O)cc(-c3ccccc3)[nH]c12`, the TGI with 786-0 renal, in the assay with SK-MEL-28 melanoma, in the assay with OVCAR-4 ovarian, in the assay on MALME-3M melanoma, with NCI-H23 lung and with SK-MEL-5 melanoma was above 100 µM in each case. The TGI with M14 melanoma, in the assay with U251 CNS and in the assay on SK-MEL-2 melanoma was above 100 µM in each case.

`Cc1nc2nn(C)cc2c(=O)n1/N=C/c1ccccc1`: the TGI with 786-0 renal, in the assay on SK-MEL-28 melanoma, in the assay on OVCAR-4 ovarian, in the assay on MALME-3M melanoma, in the assay with NCI-H23 lung and in the assay with SK-MEL-5 melanoma was above 100 µM throughout. In addition, the TGI in the assay with U251 CNS and with SK-MEL-2 melanoma was above 100 µM throughout.

For `N#Cc1c(N2CCOCC2)ncn(-c2ccc(Cl)cc2)c1=O`, the TGI in the assay on 786-0 renal, with SK-MEL-28 melanoma, in the assay with NCI-H23 lung, in the assay with SK-MEL-5 melanoma, in the assay with M14 melanoma and with U251 CNS was above 100 µM in each case. Besides, the TGI with PC-3 prostate, in the assay on SK-MEL-2 melanoma and in the assay with T-47D breast was above 100 µM throughout.

Consider `COC1C(OC(N)=O)C(O)C(Oc2ccc3c(O)c(NC(=O)c4ccc(O)c(CC=C(C)C)c4)c(=O)oc3c2C)OC1(C)C` (centres undefined), for which the TGI in the assay on 786-0 renal, with SK-MEL-28 melanoma, with MALME-3M melanoma, in the assay on SK-MEL-5 melanoma, in the assay with M14 melanoma and in the assay on U251 CNS was above 100 µM each time. Also, the TGI in the assay with PC-3 prostate, in the assay with SK-MEL-2 melanoma and with T-47D breast was above 100 µM each time.

Regarding `CC[C@H](C)[C@H]1NC(=O)[C@@H](NC(=O)[C@@H](CC(C)C)N(C)C(=O)C2CCCN2C(=O)[C@H](C)O)[C@@H](C)OC(=O)[C@H](Cc2ccccc2)N(C)C(=O)[C@@H]2CCCN2C(=O)[C@H](CC(C)C)NC(=O)[C@@H](C)C(=O)[C@H](C(C)C)OC(=O)C[C@@H]1O` (some centres undefined), the TGI in the assay with 786-0 renal stood at 0.0119 µM; in the assay with HS 578T breast it was 0.0114 µM; with SK-MEL-28 melanoma, 0.00828 µM; with OVCAR-4 ovarian, 0.0078 µM; in the assay with MALME-3M melanoma, 0.0213 µM; in the assay on M14 melanoma it was 0.0257 µM. The figures for the TGI in the assay with PC-3 prostate and in the assay with SK-MEL-2 melanoma were 0.119 µM and 0.0954 µM, respectively.

Turning to `Cc1ccc(-n2cc(-c3ccc(Cl)cc3)c(C#N)c2N)cc1`, the TGI worked out at 29.1 µM in the assay on 786-0 renal; 17.2 µM in the assay with HS 578T breast; 33.2 µM in the assay on SK-MEL-28 melanoma; 28.4 µM in the assay with OVCAR-4 ovarian; 33.1 µM with MALME-3M melanoma; 31.5 µM in the assay with NCI-H23 lung. Further, the TGI in the assay with SK-MEL-5 melanoma turned out to be 29.7 µM; in the assay on M14 melanoma it was 28.7 µM; in the assay on U251 CNS, 27.3 µM; in the assay on PC-3 prostate, 25.4 µM; in the assay on SK-MEL-2 melanoma, 29.4 µM.

`COc1nc(OC)nc(Sc2ccc(Sc3ccc(Sc4nc(OC)nc(OC)n4)cc3)cc2)n1`: the TGI in the assay with 786-0 renal, with SK-MEL-28 melanoma, in the assay with OVCAR-4 ovarian, with MALME-3M melanoma, in the assay on NCI-H23 lung and with SK-MEL-5 melanoma was above 100 µM in each case. In addition, the TGI in the assay with M14 melanoma, in the assay with U251 CNS and with SK-MEL-2 melanoma was above 100 µM throughout.

Consider `CC1=C(C(=O)NC(C)(C)C)CC(C(=O)NC(C)(C)C)C(C)N1` (centres undefined), for which the TGI in the assay with 786-0 renal, in the assay on HS 578T breast, in the assay with OVCAR-4 ovarian, in the assay on NCI-H23 lung, with SK-MEL-5 melanoma and in the assay on M14 melanoma was above 100 µM throughout. Besides, the TGI in the assay with U251 CNS, with PC-3 prostate, in the assay on SK-MEL-2 melanoma and in the assay on T-47D breast was above 100 µM throughout.

Regarding `CCOC(=O)c1c(NC(=O)c2ccc(Br)cc2)sc2c1CCCC2`, the TGI in the assay with 786-0 renal, in the assay on HS 578T breast, in the assay on SK-MEL-28 melanoma, with NCI-H23 lung, in the assay on SK-MEL-5 melanoma and in the assay on M14 melanoma was above 100 µM each time. Further, the TGI in the assay with U251 CNS, with PC-3 prostate, in the assay with SK-MEL-2 melanoma and with T-47D breast was above 100 µM throughout.

With `CC(Nc1n[nH]c(=O)c2c1nnn2Cc1ccccc1)c1ccccc1` (centres undefined), the TGI was 30.1 µM with 786-0 renal; above 100 µM in the assay with SK-MEL-28 melanoma; above 100 µM in the assay on OVCAR-4 ovarian; above 100 µM in the assay on MALME-3M melanoma; above 100 µM in the assay with NCI-H23 lung; above 100 µM in the assay on SK-MEL-5 melanoma. Besides, the TGI is above 100 µM in the assay with M14 melanoma; > 100 µM and 88.7 µM in the assay on U251 CNS; above 100 µM in the assay on PC-3 prostate; above 100 µM with SK-MEL-2 melanoma. The GI50 in the assay on OVCAR-4 ovarian was > 100 µM and 26.8 µM; in the assay on MALME-3M melanoma, > 100 µM and 24.7 µM; in the assay with NCI-H23 lung, > 100 µM and 43.8 µM; in the assay with PC-3 prostate, > 100 µM and 20.8 µM; with SK-MEL-2 melanoma, > 100 µM and 41.5 µM.
